Experiment [1] concerns the target Metallo-beta-lactamase type 2 (Bacteria) (UniProt C7C422). As to the kind of experiment: Inhibition of bacterial NDM-1 assessed as substrate hydrolysis at 50 uM using imipenem as substrate by spectrophotometric analysis relative to control.
The subject of experiment [2] is Bacteria. The experiment in a line: Inhibition of bacterial VIM-2 assessed as substrate hydrolysis at 50 uM using imipenem as substrate by spectrophotometric analysis relative to control.
The subject of experiment [3] is Bacteria. As to the kind of experiment: Inhibition of bacterial IMP-1 assessed as substrate hydrolysis at 50 uM using imipenem as substrate by spectrophotometric analysis relative to control.
Experiment [4] deals with T1, Metallo-beta-lactamase type 2 (Bacteria, UniProt C7C422). As to the kind of experiment: Competitive inhibition of NDM-1 using imipenem as substrate by spectrophotometric analysis.
A further experiment deals with Klebsiella pneumoniae. As to the kind of experiment: Potentiation of meropenem induced antibacterial activity against blaNDM-1 producing Klebsiella pneumoniae SI-518 assessed as reduction in meropenem MIC at 32 ug/ml (reference value: 128 ug/ml). The experiment is classed as functional. The following applies: dose 32 µg/ml.
For experiment [5], the system named is Escherichia coli. As to the kind of experiment: Potentiation of meropenem induced antibacterial activity against blaNDM-1 producing Escherichia coli SI-004M assessed as reduction in meropenem MIC at 32 ug/ml (reference value: 64 ug/ml). The following applies: dose 32 µg/ml. Format: functional.
Experiment [6] deals with Escherichia coli. The experiment in a line: Potentiation of meropenem induced antibacterial activity against blaNDM-4 producing Escherichia coli SI-G001 assessed as reduction in meropenem MIC at 32 ug/ml (reference value: 128 ug/ml). The settings on record: dose 32 µg/ml. The experiment is classed as functional.
The target of experiment [7] is T1, Metallo-beta-lactamase type 2. As to the kind of experiment: Inhibition of bacterial NDM-1.
The target in experiment [8] is Metallo-beta-lactamase type 2 (Bacteria) (UniProt C7C422). As to the kind of experiment: Inhibition of bacterial NDM-1 assessed as substrate hydrolysis at 100 uM using imipenem as substrate by spectrophotometric analysis relative to control.
The subject of experiment [9] is Bacteria. As to the kind of experiment: Inhibition of bacterial VIM-2 assessed as substrate hydrolysis at 100 uM using imipenem as substrate by spectrophotometric analysis relative to control.
Experiment [10] relates to Bacteria. The experiment in a line: Inhibition of bacterial IMP-1 assessed as substrate hydrolysis at 100 uM using imipenem as substrate by spectrophotometric analysis relative to control.

The structures appear in SMILES notation.

T1 sequence (C7C422 whole entry): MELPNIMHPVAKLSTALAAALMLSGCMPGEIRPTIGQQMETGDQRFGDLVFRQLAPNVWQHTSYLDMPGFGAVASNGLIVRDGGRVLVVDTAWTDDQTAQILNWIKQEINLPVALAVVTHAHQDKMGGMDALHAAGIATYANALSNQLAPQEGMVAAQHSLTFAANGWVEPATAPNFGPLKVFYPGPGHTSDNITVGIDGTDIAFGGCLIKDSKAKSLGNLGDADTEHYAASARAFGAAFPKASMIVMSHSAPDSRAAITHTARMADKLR
Chain of Metallo-beta-lactamase type 2 (Bacteria) (C7C422 whole entry): as above

`O=C1/C(=C/c2cn(Cc3cccc(O)c3)c3ccccc23)Oc2cc(O)cc(O)c21`: the inhibition (in general, the relative decrease from the control value, in per cent) in [1] was 78%; in the experiment with Bacteria [2], under 10%; in the experiment with Bacteria [3] it was 31%. Also, in experiment [4], the Ki (in general, the equilibrium dissociation constant of an inhibitor or competing ligand from its target) worked out at 16 µM. For the same compound, the MIC (as a rule, the lowest concentration found to suppress growth) amounted to 64 µg/mL in the experiment with Klebsiella pneumoniae, 64 µg/mL with Escherichia coli [5] and 128 µg/mL in the experiment with Escherichia coli [6].

On to `O=C1/C(=C/c2cn(Cc3cccc(Br)c3)c3ccccc23)Oc2cc(O)cc(O)c21`, for which the inhibition in experiment [1] was 69%; in the experiment on Bacteria [2] it was under 10%; in the experiment with Bacteria [3] it was 43%. In [4], this compound yielded a Ki of 5.5 µM. In addition, the minimal inhibitory concentration (MIC) came to 32 µg/mL with Klebsiella pneumoniae, 32 µg/mL in the experiment with Escherichia coli [5] and 64 µg/mL in the experiment with Escherichia coli [6].

Compound `O=C(O)CN1CCN(CC(=O)O)CCN(CC(=O)O)CC1` had a Ki in experiment [7] of 5.1 µM.

Consider `O=C1/C(=C/c2ccc(N3CCCCC3)cc2)Oc2cc(O)cc(O)c21`, for which the inhibition in experiment [1] amounted to 74%; in the experiment on Bacteria [2], 17%; in the experiment with Bacteria [3], 20%. Further, the Ki in experiment [4] worked out at 4.8 µM. Further, the MIC was 64 µg/mL in the experiment on Klebsiella pneumoniae, 64 µg/mL with Escherichia coli [5] and 128 µg/mL in the experiment on Escherichia coli [6].

In turn, `N[C@@H](CN[C@@H](CN[C@@H](CC(O)O)C(=O)O)C(=O)O)C(=O)O` showed an inhibition constant (Ki) in experiment [7] of 0.011 µM.

In the case of `COc1ccc(/C=C2\Oc3c(ccc(O)c3O)C2=O)c(O)c1`, the values for the inhibition (in experiment [1]; in the experiment on Bacteria [2]; with Bacteria [3]) were 84.5%, under 10% and 49%, respectively. In addition, the Ki in experiment [4] was found to be 1.7 µM. Also, the results for the minimum inhibitory concentration (MIC) in the experiment with Klebsiella pneumoniae, in the experiment on Escherichia coli [5] and with Escherichia coli [6] were 32 µg/mL, 32 µg/mL and 128 µg/mL, respectively.

As to `O=C1/C(=C/c2cn(CC3CCCCC3)c3ccccc23)Oc2cc(O)cc(O)c21`, the inhibition in experiment [1] is 72%; in the experiment with Bacteria [2], under 10%; with Bacteria [3], 44%. This compound also gave an inhibition constant (Ki) in experiment [4] of 2.5 µM. The minimum inhibitory concentration (MIC) with Klebsiella pneumoniae amounted to 16 µg/mL; in the experiment on Escherichia coli [5], 64 µg/mL; in the experiment on Escherichia coli [6] it was 64 µg/mL.

In the case of `O=C(O)[C@H](CCCn1c(-c2ccccc2)n[nH]c1=S)N(Cc1c[nH]cn1)Cc1c[nH]cn1`, the MIC in the experiment with Klebsiella pneumoniae, in the experiment on Escherichia coli [5] and in the experiment with Escherichia coli [6] was at most 0.5 µg/mL each time. The results for the inhibition (in experiment [8]; with Bacteria [9]; with Bacteria [10]) were 97%, 96% and 40%, respectively.

`O=C1/C(=C/c2ccc(O)c(O)c2)Cc2cc(O)cc(O)c21` had a Ki in experiment [7] of 4.1 µM. This lies in the single-digit micromolar range.

On to `O=C1/C(=C/c2cn(CCCc3ccccc3)c3ccccc23)Oc2cc(O)cc(O)c21`, for which the inhibition in experiment [1] was 68.7%; with Bacteria [2], under 10%; with Bacteria [3], 41%. Besides, the inhibitory constant (Ki) in experiment [4] stood at 17 µM. In addition, the MIC in the experiment on Klebsiella pneumoniae worked out at 32 µg/mL; in the experiment with Escherichia coli [5], 32 µg/mL; with Escherichia coli [6] it was 64 µg/mL.

Regarding `CCCCOc1ccc(/C=C2\Oc3cc(O)cc(O)c3C2=O)cc1`, the inhibition in [1] was 41%; in the experiment on Bacteria [2] it was under 10%; with Bacteria [3] it was 25%.

The values above are taken from ChEMBL document CHEMBL5356995, “Aurones and derivatives as promising New Delhi metallo-β-lactamase (NDM-1) inhibitors” (Bioorg Med Chem, 2024).
